Patent publication US6737247B2, “Imaging of enzymatic activity” (The General Hospital Corporation, priority 2000, dated 2004)

Tests used:
peroxidase [1] = assay: H1 NMR relaxometry / relaxivity enhancement after peroxidase treatment; assay type: biochemical; settings: equimolar amount added to the peroxidase reaction
[2] = Chelex-100 resin treatment to test dissociation of gadolinium from the DOTA(Gd) complex; assay type: physicochemical; settings: compared to control with no peroxidase added
Description: By plotting relaxation data against the concentration of gadolinium, a raise of 1/T1 and I/T2 of 2 fold (at 0.47 T) and 2.7 fold (1.5 T) in the case of substrate I, and 3.5 (at 0.47 T) in the case of substrate II has been measured (Table 1). […] To find out whether the increase in relaxivity is a result of dissociation of gadolinium cation from a DOTA(Gd) complex, we treated Tyr-DOTA(Gd) or Dopamine-DOTA(Gd) with Chelex-100 resin and compared it to the control with no peroxidase added. No difference in T1 relaxation time of substrate solutions before and after the treatment was observed.

peroxidase [3] = assay: H1 NMR relaxometry / relaxivity enhancement after peroxidase treatment; assay type: biochemical; settings: for r1, peroxidase: after peroxidase; for r1, control: no peroxidase
Experimental: Substrates I and II at concentrations of 10-50 μM were treated by peroxidase (0.1-100 nM) and an excess of hydrogen peroxide (3.5 mM) in 10 mM phosphate-buffered saline (PBS) or 0.05 M sodium phosphate pH 6.8. In some experiments, a peroxide-generating system (5 mM glucose, glucose oxidase and lactoperoxidase) was used. In inhibition studies, 2 mM Gd-free substrate, tyramine, dopamine, or methyldopamine were added as competitive inhibitors. The reaction was monitored by spectrophotometry at 400 nm and by NMR spectrometry (Minispec 120 Bruker). Magnetic resonance imaging was performed using a 1.5 T Signa GE system and surface or knee coils. Inversion-recovery pulse sequences (TE 11 ms/TR 1000 ms/TI 50-600 ms) were used for T1 measurements. […] Magnetic resonance signal intensity was measured using region-of-interest approach and 16-bit TIFF images. Mean pixel values were compared using a Student t-test.

[4] = tested on: digoxigenin-labeled Fab2' fragment of monoclonal antibody; assay: MRAMP ELISA-like assay with adsorbed DIG-labeled Fab2' fragment and anti-digoxigenin-peroxidase conjugate; settings: 0.4 mM substrate, 3.5 mM hydrogen peroxide, 96-well plate
Experimental: Fab2′ fragment of H18/7 monoclonal anti-human E selectin antibody was prepared using pepsin digestion, and then purified. Labeling of Fab2′-fragment with digoxigenin (DIG) hydroxysuccinimide ester (HSE) (Roche Molecular Diagnostics) was carried out according to the vendor's instructions. One ng to 1000 ng of DIG-labeled antibody was serially diluted with 0.01 M sodium carbonate (pH 9) in a 96-well plate (Nunc) and adsorbed at 37° C. overnight. Wells were washed with PBS containing 0.1% Tween 20 (PBST) blocked with BSA solution, and anti-DIG antibody-peroxidase conjugate (Roche, diluted 1:1000) was incubated in wells in PBS-B for 1 hour. Washed wells were filled with 200 μl of 0.4 mM substrate I or II and hydrogen peroxide (3.5 mM) and incubated for 30 min before imaging. Cells (2 million/sample) were treated sequentially with IL-1β, anti-E selectin DIG-labeled Fab2′-fragment, and anti-DIG antibody-peroxidase. Cell suspensions were prepared in PBS and substrates were used as above. Cells were pelleted in Eppendorf tubes (0.5 ml), and then imaged as described above. […] Magnetic resonance signal intensity was quantified as described above and compared to that of aqueous Gd solutions.
In the next series of experiments, we determined whether MRAMP could be utilized to detect a model ligand in an ELISA-like assay. […]

peroxidase [5] = assay: Kinetics of peroxidase-mediated oxidation in excess hydrogen peroxide, spectrophotometry at 400 nm; assay type: biochemical; settings: absorbance at 400 nm
Experimental: Substrates I and II at concentrations of 10-50 μM were treated by peroxidase (0.1-100 nM) and an excess of hydrogen peroxide (3.5 mM) in 10 mM phosphate-buffered saline (PBS) or 0.05 M sodium phosphate pH 6.8. In some experiments, a peroxide-generating system (5 mM glucose, glucose oxidase and lactoperoxidase) was used. In inhibition studies, 2 mM Gd-free substrate, tyramine, dopamine, or methyldopamine were added as competitive inhibitors. The reaction was monitored by spectrophotometry at 400 nm and by NMR spectrometry (Minispec 120 Bruker). Magnetic resonance imaging was performed using a 1.5 T Signa GE system and surface or knee coils. Inversion-recovery pulse sequences (TE 11 ms/TR 1000 ms/TI 50-600 ms) were used for T1 measurements. Spin-echo sequence (TE 13 ms/TR 400 ms/2 NEX, Matrix 256×160) was optimal for magnetic resonance imaging of signal amplification. Magnetic resonance signal intensity was measured using region-of-interest approach and 16-bit TIFF images. […]
Kinetics of oxidation of tyraminyl-DOTA(Gd), I, or hydroxytyraminyl-DOTA(Gd), II, in the presence of the excess of hydrogen peroxide was studied using spectrophotometry. The increase in absorbance at 400 nm in the case of both gadolinium-labeled substrates was rapid, indicating efficient oxidation of both substrates, and gave similar pseudo-first order kinetic constants: k1app=0.0125 s^−1 (I) and 0.013 s^−1 (II).

Compound	influence of added equimolar competitor on gadolinium relaxivity (peroxidase [1])	difference in T1 relaxation time of substrate solutions before and after Chelex-100 treatment [2]	raise of 1/T1 and 1/T2 after addition of the enzyme (peroxidase [3]; 0.47 T) [fold]	r1, peroxidase (peroxidase [3]; 0.47 T (20 MHz)) [mM⁻¹ s⁻¹]	r1, control (peroxidase [3]; 0.47 T (20 MHz)) [mM⁻¹ s⁻¹]	r1, peroxidase (peroxidase [3]; 1.5 T (63 MHz)) [mM⁻¹ s⁻¹]	r1, control (peroxidase [3]; 1.5 T (63 MHz)) [mM⁻¹ s⁻¹]	pseudo-first order kinetic constant k1app (peroxidase [5]) [s⁻¹]	further results
NCCc1ccc(O)c(O)c1 [dopamine]	did not influence gadolinium relaxivity	–	–	–	–	–	–	–	–
NCCc1ccc(O)cc1 [tyramine]	did not influence gadolinium relaxivity	–	–	–	–	–	–	–	–
N[C@@H](Cc1ccc(O)cc1)C(=O)O [tyrosine]	did not influence gadolinium relaxivity	–	–	–	–	–	–	–	–
hydroxytyraminyl-DOTA(Gd) [Substrate II]	–	No difference	3.5	11.50	3.75	14.1	5.2	0.013	antibody fragment detected at threshold (sensitivity of MRAMP assay) [4]: 1 ng
methyl-dopamine	did not influence gadolinium relaxivity	–	–	–	–	–	–	–	–
tyramine-[1,4,7,10-tetraazacyclododecane-N,N′,N″,N′″-tetraacetic acid, gadolinium salt] [Substrate I]	–	No difference	2	7.10	3.30	10.1	4.5	0.0125	raise of 1/T1 and 1/T2 after addition of the enzyme (peroxidase [3]; 1.5 T): 2.7 fold
